{"source": "patent US20120157532A1", "about": "“Method Of Treating Or Preventing A Convulsive Disorder In A Patient In Need Thereof” (priority 2009, published 2012)", "key": {"[1]": {"settings": "patients, oral administration; cited from earlier work"}, "[2]": {"system": "Wistar rats Rj Wi IOPS Han", "experiment": "Histology: retinal gliosis by GFAP immunolabelling", "assay_type": "in vivo, rat", "settings": "65 days", "protocol": "(§1) Animal treatments: As described previously (Duboc et al., 2004), Wistar rats Rj Wi IOPS Han were purchased from Janvier (Le Genest-St-lsle, France) at between six and seven weeks of age. VGB dissolved in 0.9% NaCl was administered at 40 mg (125 mg/ml, 0.32 ml) to rats by daily intraperitoneal injection for 65 days. These daily doses (rats: 200 mg/kg) are in-line with those described for the treatment of epilepsy in animals (Andre et al., 2001) or in humans (adult patients: […]; children: 50-75 mg/kg; or infants: 100-150 mg/kg) (Aicardi et al., 1996; Chiron et al., 1997; Lux et al., 2004). Light intensity in the animal cages ranged between 125 and 130 lux.\nHistology: Eye cups were fixed overnight at 4° C. in 4 % (wt/vol) paraformaldehyde in phosphate buffered saline (PBS; 0.01 M, pH 7.4). The tissue was cryoprotected in successive solutions of PBS containing 10%, 20% and 30% sucrose at 4° C., oriented along the dorso-ventral axis and embedded in OCT (Labonord, Villeneuve d'Ascq, France). Retinal sections (8-10 μm thickness) were permeabilised for five minutes in PBS containing 0.1% Triton X-100 (Sigma, St. Louis, Mo.), rinsed, and incubated in PBS containing 1% bovine serum albumin (Eurobio, Les-Ulis, France), 0.1% Tween 20 (Sigma), and 0.1% sodium azide (Merck, Fontenay-Sous-Bois, France) for two hours at room temperature. The primary antibody added to the solution was incubated for two hours at room temperature. Polyclonal antibodies were directed against rabbit GFAP (1/400, Dako, USA). Sections were rinsed and then incubated with the secondary antibody, goat anti-rabbit IgG conjugated to Alexa TM488 (1:500, Molecular Probes, Eugene, Oreg.) for two hours. The dye, diamidiphenyl-indole (DAPI), was added during the final incubation period. […]\n(§2) For quantification, vertical sections along the dorso-ventral axis were selected at the optic nerve. Following DAPI nuclear staining, the lengths of disorganised retinal areas were measured; GFAP immunostaining was used for detection and quantificationof retinal areas with reactive gliosis. […]"}, "GABA transaminase": {"target": "GABA transaminase (Homo sapiens, UniProt P80404)", "sequence (P80404 29-500, species assumed)": "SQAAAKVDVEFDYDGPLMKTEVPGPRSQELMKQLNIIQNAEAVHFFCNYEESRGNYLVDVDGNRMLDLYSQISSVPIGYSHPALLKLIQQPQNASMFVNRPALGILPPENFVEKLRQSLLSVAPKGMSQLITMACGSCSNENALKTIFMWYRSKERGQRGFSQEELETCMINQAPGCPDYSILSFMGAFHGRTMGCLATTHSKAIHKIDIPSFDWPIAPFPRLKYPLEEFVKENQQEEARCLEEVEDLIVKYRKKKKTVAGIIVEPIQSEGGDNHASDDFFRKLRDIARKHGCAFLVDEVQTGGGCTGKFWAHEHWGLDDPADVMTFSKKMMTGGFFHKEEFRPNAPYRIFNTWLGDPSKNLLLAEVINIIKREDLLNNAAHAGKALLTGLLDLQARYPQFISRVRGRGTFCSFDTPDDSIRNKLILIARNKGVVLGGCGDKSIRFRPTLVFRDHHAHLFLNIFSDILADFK", "settings": "cited from earlier work"}, "[3]": {"system": "Wistar rats Rj Wi IOPS Han", "experiment": "Histology: lengths of disorganised retinal areas (DAPI nuclear staining)", "assay_type": "in vivo, rat", "settings": "evening versus morning injection, 65 days; p<0.05", "protocol": "as §1\nHistology: Eye cups were fixed overnight at 4° C. in 4 % (wt/vol) paraformaldehyde in phosphate buffered saline (PBS; 0.01 M, pH 7.4). The tissue was cryoprotected in successive solutions of PBS containing 10%, 20% and 30% sucrose at 4° C., oriented along the dorso-ventral axis and embedded in OCT (Labonord, Villeneuve d'Ascq, France). […]\nas §2"}, "visual field": {"system": "visual field", "settings": "patients; cited from earlier work"}, "[4]": {"system": "Wistar rats Rj Wi IOPS Han", "experiment": "Photopic electroretinogram (ERG) in VGB-treated rats", "assay_type": "in vivo, rat", "settings": "for photopic ERG amplitude versus control group: p<0.001/p<0.01", "protocol": "as §1\nElectroretinogram (ERG): Photopic ERGs were recorded after the last VGB injection, as described previously (Duboc et al., 2004). Anesthesia was induced by intraperitoneal injection (0.8 to 1.2 ml/kg) of a solution containing ketamine (40 mg/ml) and xylazine (4 mg/ml Rompum). Animals were light-adapted for 10 minutes with a background light of 25 cdm^−2. Light flashes were then applied on this background light; the light intensity of the flash was 25 cdsm^−2. Ten recordings were averaged with an interstimulus interval of 30 s.\nStatistical analysis: Statistical analysis of the results was performed by a one-way analysis of variance with the Student-Newman Keuls test (Sigmastat) for all measurements."}}}
{"smiles": "C=CC(N)CCC(=O)O", "note": "(centres unmarked) [VGB, 4-amino-5-hexenoic acid]", "values": [{"measurement": "time for plasma VGB concentration to decrease to half of the peak concentration", "setting": "[1]", "result": "within six to eight hours"}, {"measurement": "time to peak plasma VGB concentration", "setting": "[1]", "result": "within an hour"}, {"measurement": "GFAP staining in the outer retina versus control animals", "setting": "[2]; VGB AM: morning injection", "result": "intense staining in the outer retina"}, {"measurement": "GFAP staining in the outer retina versus control animals", "setting": "[2]; VGB PM: evening injection", "result": "intense staining in the outer retina"}, {"measurement": "distribution of GFAP-positive areas, VGB PM versus VGB AM", "setting": "[2]; evening versus morning injection, p<0.05", "result": "less widely distributed"}, {"measurement": "duration of irreversible inhibition of the GABA transaminase", "setting": "GABA transaminase", "result": "lasts for few days"}, {"measurement": "disorganised retinal areas (outer nuclear layer), VGB PM versus VGB AM", "setting": "[3]", "result": "smaller disorganised retinal areas"}, {"measurement": "effect on visual field", "setting": "visual field", "result": "irreversible constriction of the visual field"}, {"measurement": "photopic ERG amplitude versus control group", "setting": "[4]; VGB AM: 40 mg daily i.p. for 65 days at the beginning of the light cycle", "result": "lower ERG amplitude"}, {"measurement": "photopic ERG amplitude versus control group", "setting": "[4]; VGB PM: 40 mg daily i.p. for 65 days at the end of the light cycle", "result": "lower ERG amplitude"}, {"measurement": "ERG amplitude decrease, VGB PM versus VGB AM", "setting": "[4]; injected at the end versus the beginning of the light cycle, 65 days, p<0.005", "result": "less important"}]}
